Results reported in US20070148250A1, “Loading of a camptothecin drug into colloidal nanoparticles” (priority 2003, published 2007).
Values belong to the molecule of their own block, whether it stands above or below them.

Tests used:
Format in all cases: physicochemical
[1] = Stability of camptothecin carboxylate in concentrated alkaline media (HPLC)
Experimental: CPT-carboxylate can be obtained quantitatively from the lactone form of CPT by incubation the latter with at least an equimolar amount or an excess of base (e.g. NaOH or NH4OH). In the most simple approach CPT lactone is stirred with 1 M NaOH or NH4OH ovenight. Higher concentrations are favourable to accelerate the process.
Camptothecin in the lactone form was dissolved at a concentration of 4.6 μg/ml in concentrated ammonia (NH4OH) in order to obtain the carboxylate form. HPLC analysis was performed directly after dissolving the lactone and after 19 days.

[2] = Fraction of free (non-liposomally bound) CPT by Vivaspin 2 centrifugal filtration (MWCO 100 kDa) and UV-spectroscopy of the filtrate
Experimental: For direct comparison, CPT-carboxylate loaded liposomes were made by one of the techniques as given in the literature. Liposomes, loaded with CPT-carboxylate produced by the inventive method were prepared with the same total composition. The fraction of free (non-liposomally bound) CPT was determined in both cases. The free CPT was determined by centrifugation with the centrifugal concentrator Vivaspin 2 (Vivasciences). By a membrane of MWCO 100 kDa, the molecularly dissolved solutes were separated from the colloidal particles. The concentration of CPT in the filtrate was determined by UV-spectroscopy. All measurements with camptothecin were made with tris/HCI buffer, pH 7.5, 10 mM or 20 mM.
For the production of classically made formulations, the liposomes were formed directly in the aqueous solution of CPT carboxylate. By subsequent extrusion through membranes of 200 nm pore size homogeneous mixing and encapsulation was provided. The liposomes were made either by the ‘film method’ or by ‘ethanol injection’.
For the film method, a solution of lipids in chloroform is evaporated in a round bottom flask. A thin dry lipid film is formed at the inner wall of the flask. For the production of empty liposomes, the film is reconstituted with water or buffer solution. For the production of CPT loaded liposomes, the film is reconstituted with the CPT-carboxylate solution. […]
A lyophilisate of DOTAP liposomes (30 mM) was reconstituted with 2.088 ml of an aqueous solution of CPT carboxylate in water (1.4 mM). […] From the resulting preparation the fraction of free CPT was determined by centrifugation at different lipid concentrations.
1 ml of the DOTAP concentrate and 9 ml of CPT carboxylate solution, c=[…] were mixed. […] This preparation was diluted 1:10 1:25 and 1:50 and the fraction of free CPT was determined.
Liquid DOTAP formulations were exposed to CPT-carboxylate solutions for different time scales. […] After the given time, the fraction of free CPT was determined for different dilutions. […]

[3] = Solubility of camptothecin in buffered aqueous phase at different pH values; conditions: 50 mM buffer, pH values below 7, within few days
Experimental: In this measurements, the solubility of camptothecin in aqueous media at different pH values is investigated. Pure camptothecin carboxylate was dissolved in a buffered (50 mM) aqueous phase at different pH values. At different times the solutions were centrifuged in order to remove camptothecin lactone crystals and the remaining concentration of the camptothecin in the supernatant was determined by UV-vis spectroscopy. […] These concentrations are too low for sufficient pharmaceutical efficacy.

[4] = Loading of aminofluorescein to DOTAP/DOPC liposomes, cross-flow filtration and UV-vis; conditions: DOTAP/DOPC 1:1 liposomes, after three cycles of filtration
Experimental: A 25 mM liposome formulation consisting of DOTAP/DOPC 1:1 in a solution of 5% glucose (w/v) was prepared. Briefly, a solution of DOTAP/DOPC in chloroform was put into a round bottom flask, and the solvent was evaporated in order to obtain a thin lipid film. The lipid film was reconstituted with the glucose solution to a total lipid concentration of 25 mM. The resulting multilamellar, polydisperse liposome suspension was extruded through a membrane of 200 nm pore size to obtain liposomes of uniform size.
10 ml of the liposome preparation and 10 ml of a 5 mM aqueous solution of aminofluorescein were combined.
Subsequently, the molecularly dissolved components were removed by cross-flow filtration, using a VIVAFLOW filtration kit, […] and a Masterflex easy lod pump, model.
20 ml of the preparation were diluted with 20 ml glucose. By the subsequent dialysis, part of the solvent and the molecularly dissolved (low molecular) compound penetrated across the separation membrane, while the liposomes were retained. Filtration was performed until the volume of the original solution was reduced to half of the start volume. Then the lost volume was substituted by glucose solution and the filtration was started again. Three filtration cycles were performed.
The concentration of aminofluorescein in the permeate and in the retained liposome suspension was determined by UV-vis spectroscopy.

Molecule: CCC(O)(C(=O)O)c1cc2n(c(=O)c1CO)Cc1cc3ccccc3nc1-2 (centres unmarked) [camptothecin carboxylate]
- chemical degradation [1]: no indication for chemical degradation
- loading efficacy in DOTAP/DOPC liposomes ([2]; 30-100% DOTAP, total lipid 15 mM, CPT 0.75 mM, additional presence of DOPC): only slightly reduced

Molecule: CC[C@@]1(O)C(=O)OCc2c1cc1n(c2=O)Cc2cc3ccccc3nc2-1 [Camptothecin, 20(S)-Camptothecine (1H-Pyrano[3′,4′:6,7]indolizino[1,2-b]quinoline-3,14 (4H,12H)-dione, 4-ethyl-4-hydroxy-, (S)—)]
- concentration of camptothecin remaining in supernatant [3]: very low values
- degradation by the alkaline medium (HPLC) ([1]; 4.6 μg/ml in concentrated ammonia (NH4OH), after 19 days): no indication for a degradation
- loading of DOTAP liposomes with CPT at first time point after mixing ([2]; DOTAP 15 mM, CPT carboxylate 0.75 mM, original concentration, Tris/HCl 10 mM pH 7.5): loading reached saturation
- time up to which fraction of loaded drug increased ([2]; diluted samples of DOTAP 15 mM/CPT 0.75 mM mixture, not stirred): up to 4 hours

- amount retained with the liposome suspension ([4]; 5% glucose): 47 % of the original concentration
- retained amount relative to expected value without any retention [4]: four times as high
Molecule: aminofluorescein
